Assay results: patent US20230167127A1, “COMPOUNDS AND THEIR USE IN THE TREATMENT OF BACTERIAL INFECTION” (Hoffmann-La Roche Inc., priority 2020, published 2023)
Where two headings read alike, the source gives them in different places.

System: Escherichia coli ATCC 25922
Assay: 50% growth inhibitory concentration (IC50) determination, Iso-Sensitest broth dilution
Assay type: cell-based
Conditions: strain Escherichia coli ATCC 25922, 10-point broth dilution, optical density at 600 nm over 16 h, read-out: Escherichia coli growth inhibition IC50
Method in brief: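 Growth was tracked as optical density at 600 nm every 20 minutes for 16 h at 35±2° C. Compounds from DMSO stocks were serially diluted twofold over 10 points (e.g. 50–0.097 μM final) in Iso-Sensitest broth. Inhibition computed in log-phase growth to give IC50.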

[1] = Escherichia coli, ATCC25922, 16 h

IC50 [1] [nM] | IC50 [nM] | Compound
167 |  | CNC(=O)COc1cc(C)c2c(c1C#N)CC(CNCCC1CN(c3cnc4c(n3)NC(=O)CO4)C(=O)O1)C2 (centres unmarked) [Example 384, 2-[[4-cyano-7-methyl-2-[[2-[2-oxo-3-(3-oxo-4H-pyrazino[2,3-b][1,4]oxazin-6-yl)-1,3-oxazolidin-5-yl]ethylamino]methyl]-2,3-dihydro-1H-inden-5-yl]oxy]-N-methylacetamide]
< 97.7 |  | O=C1COc2ccc(N3CC(CCNCC4Cc5cc(OC6CNC6)cc(F)c5C4)OC3=O)nc2N1 (centres unmarked) [Example 150, 6-[5-[2-[[6-(azetidin-3-yloxy)-4-fluoro-2,3-dihydro-1H-inden-2-yl]methylamino]ethyl]-2-oxo-1,3-oxazolidin-3-yl]-4H-pyrido[3,2-b][1,4]oxazin-3-one]
< 97.7 |  | NC1c2cccc(Cl)c2CC1NCCCC1CN(c2ccc3c(n2)NC(=O)CO3)C(=O)O1 (racemic) [Example 244, 6-[2-oxo-5-[3-[[rac-1,2-trans-1-amino-4-chloro-2,3-dihydro-1H-inden-2-yl]amino]propyl]-1,3-oxazolidin-3-yl]-4H-pyrido[3,2-b][1,4]oxazin-3-one]
175 |  | Cc1ncc(F)c2c1CC(CNCCc1nn(-c3ccc4c(n3)NC(=O)CO4)c(=O)o1)C2 (centres unmarked) [Example 68, 6-[5-[2-[(4-fluoro-1-methyl-6,7-dihydro-5H-cyclopenta[c]pyridin-6-yl)methylamino]ethyl]-2-oxo-1,3,4-oxadiazol-3-yl]-4H-pyrido[3,2-b][1,4]oxazin-3-one]
188 |  | O=C1COc2ccc(N3CC(CCNCC4Cc5cccc(Cl)c5C4)OC3=O)cc2N1 (centres unmarked) [Example 15, 6-[5-[2-[(4-chloro-2,3-dihydro-1H-inden-2-yl)methylamino]ethyl]-2-oxo-1,3-oxazolidin-3-yl]-4H-1,4-benzoxazin-3-one; formic acid]
112 |  | NC1c2cccc(Cl)c2CC1CNCCC1CN(c2cnc3c(n2)NC(=O)CO3)C(=O)O1 (racemic) [Example 136, 6-[2-oxo-5-[2-[[rac-1,2-trans-1-amino-4-chloro-2,3-dihydro-1H-inden-2-yl]methylamino]ethyl]-1,3-oxazolidin-3-yl]-4H-pyrazino[2,3-b][1,4]oxazin-3-one; formic acid]
< 97.7 |  | CC(C)(N)COc1cc(C#N)c2c(c1)CC(CNCCC1CN(c3ccc4c(n3)NC(=O)CO4)C(=O)O1)C2 (centres unmarked) [Example 203, 6-(2-amino-2-methylpropoxy)-2-(((2-(2-oxo-3-(3-oxo-3,4-dihydro-2H-pyrido[3,2-b][1,4]oxazin-6-yl)oxazolidin-5-yl)ethyl)amino)methyl)-2,3-dihydro-1H-indene-4-carbonitrile; 2,2,2-trifluoroacetic acid]
 | 217 | O=C1COc2ncc(N3CC(CC(O)CNC4Cc5cccc(F)c5C4)OC3=O)nc2N1 (single isomer, unassigned; isomer b) [Example 84, 6-[5-[3-[(4-fluoro-2,3-dihydro-1H-inden-2-yl)amino]-2-hydroxypropyl]-2-oxo-1,3-oxazolidin-3-yl]-4H-pyrazino[2,3-b][1,4]oxazin-3-one, Isomer B; formic acid]
< 97.7 |  | NC1c2cccc(Cl)c2CC1CCN1CC2(C1)CN(c1ccc3c(n1)NC(=O)CO3)C(=O)O2 (racemic) [Example 195, 6-[6-oxo-2-[2-[rac-1,2-trans-1-amino-4-chloro-2,3-dihydro-1H-inden-2-yl]ethyl]-5-oxa-2,7-diazaspiro[3.4]octan-7-yl]-4H-pyrido[3,2-b][1,4]oxazin-3-one; 2,2,2-trifluoroacetic acid]
439 |  | O=C1COc2ccc(N3CC(CCCNC4Cc5ccccc5C4)OC3=O)nc2N1 (centres unmarked) [Example 9, 6-[5-[3-(2,3-dihydro-1H-inden-2-ylamino)propyl]-2-oxo-1,3-oxazolidin-3-yl]-4H-pyrido[3,2-b][1,4]oxazin-3-one; formic acid]
< 97.7 |  | Cc1ncc(F)c2c1CC(CNCCC1CN(c3ccc4c(n3)NC(=O)CO4)C(=O)O1)C2 (centres unmarked) [Example 36, 6-[5-[2-[(4-fluoro-1-methyl-6,7-dihydro-5H-cyclopenta[c]pyridin-6-yl)methylamino]ethyl]-2-oxo-1,3-oxazolidin-3-yl]-4H-pyrido[3,2-b][1,4]oxazin-3-one]
941 |  | CC(=O)NCCOc1ccc2c(c1C#N)CC(CNCCC1CN(c3ccc4c(n3)NC(=O)CO4)C(=O)O1)C2 (centres unmarked) [Example 56, N-[2-[[4-cyano-2-[[2-[2-oxo-3-(3-oxo-4H-pyrido[3,2-b][1,4]oxazin-6-yl)-1,3-oxazolidin-5-yl]ethylamino]methyl]-2,3-dihydro-1H-inden-5-yl]oxy]ethyl]acetamide]
258 |  | Cn1nnnc1COc1cc(C#N)c2c(c1)CC(CNCCC1CN(c3cnc4c(n3)NC(=O)CO4)C(=O)O1)C2 (centres unmarked) [Example 391, 6-[(1-methyltetrazol-5-yl)methoxy]-2-[[2-[2-oxo-3-(3-oxo-4H-pyrazino[2,3-b][1,4]oxazin-6-yl)-1,3-oxazolidin-5-yl]ethylamino]methyl]-2,3-dihydro-1H-indene-4-carbonitrile]
119 |  | NC1c2cccc(Cl)c2CC1NCCCC1CN(c2cnc3c(n2)NC(=O)CO3)C(=O)O1 (racemic) [Example 245, 6-[2-oxo-5-[3-[[rac-1,2-trans-1-amino-4-chloro-2,3-dihydro-1H-inden-2-yl]amino]propyl]-1,3-oxazolidin-3-yl]-4H-pyrazino[2,3-b][1,4]oxazin-3-one]
191 |  | CC(N)COc1cc2c(c(Cl)n1)CC(CNCCC1CN(c3cnc4c(n3)NC(=O)CO4)C(=O)O1)C2 (centres unmarked) [Example 145, 6-[5-[2-[[3-(2-aminopropoxy)-1-chloro-6,7-dihydro-5H-cyclopenta[c]pyridin-6-yl]methylamino]ethyl]-2-oxo-oxazolidin-3-yl]-4H-pyrazino[2,3-b][1,4]oxazin-3-one; formic acid]
 | 516 | N#Cc1cccc2c1CC(CNC1CCC3C(C1)OC(=O)N3c1ccc3c(n1)NC(=O)CO3)C2 (racemic) [Example 99, 2-[[[rac-3a,7a-cis-6,7a-trans-2-oxo-3-(3-oxo-4H-pyrido[3,2-b][1,4]oxazin-6-yl)-3a,4,5,6,7,7a-hexahydro-1,3-benzoxazol-6-yl]amino]methyl]-2,3-dihydro-1H-indene-4-carbonitrile; formic acid]
< 97.7 |  | CN(C)CCOc1cc(F)c2c(c1)CC(CNCCC1CN(c3cnc4c(n3)NC(=O)CO4)C(=O)O1)C2 (centres unmarked) [Example 272, 6-[5-[2-[[6-[2-(Dimethylamino)ethoxy]-4-fluoro-2,3-dihydro-H-inden-2-yl]methylamino]ethyl]-2-oxo-1,3-oxazolidin-3-yl]-4H-pyrazino[2,3-b][1,4]oxazin-3-one; formic acid]
134 |  | O=C1COc2ccc(N3CC(CCNCC4Cc5ccnc(Cl)c5C4)OC3=O)nc2N1 (centres unmarked) [Example 86, 6-[5-[2-[(1-chloro-6,7-dihydro-5H-cyclopenta[c]pyridin-6-yl)methylamino]ethyl]-2-oxo-1,3-oxazolidin-3-yl]-4H-pyrido[3,2-b][1,4]oxazin-3-one]
< 97.7 |  | N#Cc1c(OCC2(N)CC2)ncc2c1CC(CNCCC1CN(c3ccc4c(n3)NC(=O)CO4)C(=O)O1)C2 (centres unmarked) [Example 198, 3-[(1-aminocycopropyl)methoxy]-6-[[2-[2-oxo-3-(3-oxo-4H-pyrido[3,2-b][1,4]oxazin-6-yl)-1,3-oxazolidin-5-yl]ethylamino]methyl]-6,7-dihydro-5H-cyclopenta[c]pyridine-4-carbonitrile]
833 |  | N#Cc1c(OCCN2CCNCC2)ccc2c1CC(CNCCC1CN(c3ccc4c(n3)NC(=O)CO4)C(=O)O1)C2 (centres unmarked) [Example 143, 2-[[2-[2-oxo-3-(3-oxo-4H-pyrido[3,2-b][1,4]oxazin-6-yl)-1,3-oxazolidin-5-yl]ethylamino]methyl]-5-(2-piperazin-1-ylethoxy)-2,3-dihydro-1H-indene-4-carbonitrile; formic acid]
 | 289 | Cc1ncc(F)c2c1CC(CN1CCC3(CN(c4ccc5c(n4)NC(=O)CO5)C(=O)O3)C(CN)C1)C2 (racemic) [Example 250, 6-[rac-5,6-trans-6-(Aminomethyl)-8-[(4-fluoro-1-methyl-6,7-dihydro-5H-cyclopenta[c]pyridin-6-yl)methyl]-2-oxo-1-oxa-3,8-diazaspiro[4.5]decan-3-yl]-4H-pyrido[3,2-b][1,4]oxazin-3-one]
131 |  | NC1c2cccc(F)c2CC1CNCCC1CN(c2ccc3c(n2)NC(=O)CO3)C(=O)O1 (racemic) [Example 163, 6-[5-[2-[(rac-1,2-trans-1-amino-4-fluoro-2,3-dihydro-1H-inden-2-yl)methylamino]ethyl]-2-oxo-1,3-oxazolidin-3-yl]-4H-pyrido[3,2-b][1,4]oxazin-3-one]
1890 |  | Cc1ncc(F)c2c1CC(CCNCC1(CCO)CN(c3ccc4c(n3)NC(=O)CO4)C(=O)O1)C2 (centres unmarked) [Example 278, 6-[5-[[2-(4-fluoro-1-methyl-6,7-dihydro-5H-cyclopenta[c]pyridin-6-yl)ethylamino]methyl]-5-(2-hydroxyethyl)-2-oxo-1,3-oxazolidin-3-yl]-4H-pyrido[3,2-b][1,4]oxazin-3-one]
< 97.7 |  | NC(=O)COc1cc(F)c2c(c1F)CC(CNCCC1CN(c3cnc4c(n3)NC(=O)CO4)C(=O)O1)C2 (centres unmarked) [Example 312, 2-[[4,7-difluoro-2-[[2-[2-oxo-3-(3-oxo-4H-pyrazino[2,3-b][1,4]oxazin-6-yl)-1,3-oxazolidin-5-yl]ethylamino]methyl]-2,3-dihydro-1H-inden-5-yl]oxy]acetamide]
< 97.7 |  | N#Cc1cccc2c1CC(N1CCC(C3CN(c4cnc5c(n4)NC(=O)CO5)C(=O)O3)CC1)C2 (centres unmarked) [Example 349, 2-[4-[2-oxo-3-(3-oxo-4H-pyrazino[2,3-b][1,4]oxazin-6-yl)-1,3-oxazolidin-5-yl]piperidin-1-yl]-2,3-dihydro-1H-indene-4-carbonitrile]
332 |  | O=C1COc2ccc(N3CC(CCCNCC4Cc5cccc(Cl)c5C4)OC3=O)nc2N1 (centres unmarked) [Example 2, 6-[5-[3-[(4-chloro-2,3-dihydro-1H-inden-2-yl)methylamino]propyl]-2-oxo-1,3-oxazolidin-3-yl]-4H-pyrido[3,2-b][1,4]oxazin-3-one]
